# Reference: ChEMBL document CHEMBL5291721, “A preclinical secondary pharmacology resource illuminates target-adverse drug reaction associations of marketed drugs” (Nat Commun, 2023)
# Columns and labels:
# [1] = molecular target: T1, Muscarinic acetylcholine receptor M5 (Homo sapiens, UniProt P08912)
# T1 sequence (P08912 whole entry): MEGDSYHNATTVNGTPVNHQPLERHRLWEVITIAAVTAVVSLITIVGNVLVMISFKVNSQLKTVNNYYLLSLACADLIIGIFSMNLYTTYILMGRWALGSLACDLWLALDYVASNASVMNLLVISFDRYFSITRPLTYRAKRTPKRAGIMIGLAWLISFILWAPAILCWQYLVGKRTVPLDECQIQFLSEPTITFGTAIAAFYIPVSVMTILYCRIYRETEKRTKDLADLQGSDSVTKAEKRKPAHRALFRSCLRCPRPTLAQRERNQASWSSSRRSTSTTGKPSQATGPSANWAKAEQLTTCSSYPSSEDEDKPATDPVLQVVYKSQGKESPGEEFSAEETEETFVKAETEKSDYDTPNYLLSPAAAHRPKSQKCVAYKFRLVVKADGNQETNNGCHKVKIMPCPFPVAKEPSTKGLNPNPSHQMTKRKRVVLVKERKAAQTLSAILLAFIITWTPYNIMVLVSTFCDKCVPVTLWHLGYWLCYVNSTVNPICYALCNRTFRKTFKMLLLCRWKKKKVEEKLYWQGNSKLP
# [2] = molecular target: D(1A) dopamine receptor (Homo sapiens, UniProt P21728)
# Chain of D(1A) dopamine receptor (P21728 whole entry): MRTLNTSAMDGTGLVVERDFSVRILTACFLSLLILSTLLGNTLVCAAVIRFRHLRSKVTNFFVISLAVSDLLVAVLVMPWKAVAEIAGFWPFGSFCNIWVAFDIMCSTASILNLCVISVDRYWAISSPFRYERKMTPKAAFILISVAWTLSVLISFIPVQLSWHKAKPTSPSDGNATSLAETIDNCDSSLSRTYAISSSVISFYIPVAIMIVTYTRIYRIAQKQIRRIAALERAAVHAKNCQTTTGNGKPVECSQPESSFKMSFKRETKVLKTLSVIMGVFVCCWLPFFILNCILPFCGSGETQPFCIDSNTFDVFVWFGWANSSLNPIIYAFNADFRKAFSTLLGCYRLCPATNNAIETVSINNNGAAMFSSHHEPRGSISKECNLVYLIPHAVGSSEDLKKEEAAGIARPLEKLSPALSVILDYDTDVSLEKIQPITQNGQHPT
# [3] = molecular target: T2, Muscarinic acetylcholine receptor M4 (Homo sapiens, UniProt P08173)
# T2 sequence (P08173 whole entry): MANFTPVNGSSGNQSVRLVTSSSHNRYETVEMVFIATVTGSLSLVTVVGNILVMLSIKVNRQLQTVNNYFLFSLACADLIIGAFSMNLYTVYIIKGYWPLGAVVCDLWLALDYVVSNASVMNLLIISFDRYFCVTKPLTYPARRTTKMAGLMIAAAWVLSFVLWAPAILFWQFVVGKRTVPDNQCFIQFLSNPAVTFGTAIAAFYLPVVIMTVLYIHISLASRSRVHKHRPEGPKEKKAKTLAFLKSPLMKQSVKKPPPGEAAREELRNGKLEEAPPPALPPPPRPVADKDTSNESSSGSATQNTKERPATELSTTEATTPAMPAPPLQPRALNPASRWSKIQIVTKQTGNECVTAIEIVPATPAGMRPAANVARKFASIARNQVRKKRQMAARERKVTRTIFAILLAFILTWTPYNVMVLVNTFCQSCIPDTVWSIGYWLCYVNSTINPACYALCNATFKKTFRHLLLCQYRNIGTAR
# [4] = molecular target: Rod cGMP-specific 3',5'-cyclic phosphodiesterase subunit alpha (Homo sapiens, UniProt P16499); format: functional
# Chain of Rod cGMP-specific 3',5'-cyclic phosphodiesterase subunit alpha (P16499 whole entry): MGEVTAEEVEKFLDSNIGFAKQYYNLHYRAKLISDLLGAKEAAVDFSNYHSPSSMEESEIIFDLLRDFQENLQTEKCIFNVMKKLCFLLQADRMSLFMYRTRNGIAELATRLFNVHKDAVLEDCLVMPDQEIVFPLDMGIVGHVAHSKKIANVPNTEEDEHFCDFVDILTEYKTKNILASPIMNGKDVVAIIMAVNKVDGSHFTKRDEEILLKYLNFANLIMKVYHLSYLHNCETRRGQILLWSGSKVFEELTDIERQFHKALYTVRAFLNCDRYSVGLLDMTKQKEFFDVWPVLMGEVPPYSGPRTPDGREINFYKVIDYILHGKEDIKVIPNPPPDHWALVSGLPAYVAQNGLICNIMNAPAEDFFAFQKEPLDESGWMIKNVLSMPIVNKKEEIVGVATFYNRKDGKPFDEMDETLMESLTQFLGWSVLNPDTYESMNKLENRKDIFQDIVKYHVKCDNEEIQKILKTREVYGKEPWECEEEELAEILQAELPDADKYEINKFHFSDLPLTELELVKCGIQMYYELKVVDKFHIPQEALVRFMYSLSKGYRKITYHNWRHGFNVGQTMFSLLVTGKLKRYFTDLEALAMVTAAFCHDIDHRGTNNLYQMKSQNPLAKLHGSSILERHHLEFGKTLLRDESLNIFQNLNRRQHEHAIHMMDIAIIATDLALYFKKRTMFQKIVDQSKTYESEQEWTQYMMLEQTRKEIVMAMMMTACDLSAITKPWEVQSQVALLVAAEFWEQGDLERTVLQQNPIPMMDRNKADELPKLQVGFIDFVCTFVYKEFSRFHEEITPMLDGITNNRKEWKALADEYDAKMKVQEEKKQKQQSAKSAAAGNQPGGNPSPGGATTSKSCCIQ
# [5] = molecular target: T3, Substance-K receptor (Homo sapiens, UniProt P21452)
# T3 sequence (P21452 whole entry): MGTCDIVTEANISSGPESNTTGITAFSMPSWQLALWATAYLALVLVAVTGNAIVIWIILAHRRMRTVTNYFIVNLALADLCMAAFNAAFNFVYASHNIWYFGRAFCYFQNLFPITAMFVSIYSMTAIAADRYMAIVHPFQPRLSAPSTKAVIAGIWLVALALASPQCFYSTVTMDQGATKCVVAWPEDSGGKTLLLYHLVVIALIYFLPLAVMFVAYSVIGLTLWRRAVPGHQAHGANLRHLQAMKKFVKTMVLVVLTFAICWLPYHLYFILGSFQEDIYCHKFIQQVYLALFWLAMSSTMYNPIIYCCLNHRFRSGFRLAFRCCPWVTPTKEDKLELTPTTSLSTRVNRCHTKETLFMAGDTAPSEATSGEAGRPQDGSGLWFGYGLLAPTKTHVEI
# [6] = molecular target: T4, Type-2 angiotensin II receptor (Homo sapiens, UniProt P50052); format: functional
# T4 sequence (P50052 whole entry): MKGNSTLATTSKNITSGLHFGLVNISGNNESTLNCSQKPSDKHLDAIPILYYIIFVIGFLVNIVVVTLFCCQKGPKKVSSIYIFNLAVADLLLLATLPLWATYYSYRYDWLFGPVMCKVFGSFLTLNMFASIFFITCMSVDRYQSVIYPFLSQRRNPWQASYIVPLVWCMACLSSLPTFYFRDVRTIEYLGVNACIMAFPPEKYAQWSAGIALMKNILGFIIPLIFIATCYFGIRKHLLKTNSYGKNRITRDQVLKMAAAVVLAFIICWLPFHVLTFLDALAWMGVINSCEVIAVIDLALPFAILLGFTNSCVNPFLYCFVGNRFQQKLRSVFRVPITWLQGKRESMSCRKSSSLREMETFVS
# [7] = molecular target: T5, Estrogen receptor (Homo sapiens, UniProt P03372); format: functional
# T5 sequence (P03372 whole entry): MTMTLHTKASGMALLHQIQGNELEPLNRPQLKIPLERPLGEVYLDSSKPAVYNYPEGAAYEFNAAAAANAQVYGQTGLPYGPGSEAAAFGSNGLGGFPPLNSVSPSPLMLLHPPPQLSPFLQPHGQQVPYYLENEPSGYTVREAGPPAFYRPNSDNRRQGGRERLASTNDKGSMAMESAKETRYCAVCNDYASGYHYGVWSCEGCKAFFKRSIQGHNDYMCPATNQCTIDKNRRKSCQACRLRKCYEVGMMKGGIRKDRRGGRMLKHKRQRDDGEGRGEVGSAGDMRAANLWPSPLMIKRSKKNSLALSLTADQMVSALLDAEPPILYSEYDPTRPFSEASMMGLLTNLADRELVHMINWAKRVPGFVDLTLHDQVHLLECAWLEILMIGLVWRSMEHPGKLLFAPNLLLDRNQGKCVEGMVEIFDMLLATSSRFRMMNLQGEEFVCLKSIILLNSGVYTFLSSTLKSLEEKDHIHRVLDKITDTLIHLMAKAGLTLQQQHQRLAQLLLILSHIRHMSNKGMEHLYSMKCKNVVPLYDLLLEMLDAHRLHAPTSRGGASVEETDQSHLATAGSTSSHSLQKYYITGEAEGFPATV
# [8] = molecular target: T5, Estrogen receptor; format: functional; remark: listed apart in the source
# [9] = molecular target: T4, Type-2 angiotensin II receptor; format: functional; remark: listed apart in the source
# Note: assay procedure not described here.
smiles,measurement,setting,value
COc1ccc2c3c1O[C@H]1[C@@H](O)C=C[C@H]4[C@@H](C2)N(C)CC[C@@]341 [CODEINE],AC50,[1],> 10 µM
C=CCN1CCCC1CNC(=O)c1cc(S(N)(=O)=O)cc(OC)c1OC (centres undefined) [VERALIPRIDE],AC50,[2],0.013 µM
N#Cc1ccc([C@H]2CCc3cncn32)c(F)c1 [OSILODROSTAT],AC50,[3],> 10 µM
same,AC50,[1],> 10 µM
same,AC50,[4],> 10 µM
same,AC50,[5],> 10 µM
C[C@](N)(Cc1ccc(O)c(O)c1)C(=O)O [METHYLDOPA],AC50,[6],> 100 µM
CC(=O)O[C@H]1CC[C@@]2(C)C(=CC[C@@H]3[C@@H]2CC[C@]2(C)C(c4cccnc4)=CC[C@@H]32)C1 [ABIRATERONE ACETATE],AC50,[7],> 30 µM
same,AC50,[8],> 30 µM
CN1CCN(CC/C=C2/c3ccccc3Sc3ccc(S(=O)(=O)N(C)C)cc32)CC1 [THIOTHIXENE],AC50,[2],0.019 µM
CCCCc1ncc(/C=C(\Cc2cccs2)C(=O)O)n1Cc1ccc(C(=O)O)cc1 [EPROSARTAN],AC50,[6],> 100 µM
same,AC50,[3],> 10 µM
same,AC50,[1],> 10 µM
same,AC50,[4],> 10 µM
same,AC50,[5],> 10 µM
same,AC50,[9],> 100 µM
CCCc1nc(C(C)(C)O)c(C(=O)OCc2oc(=O)oc2C)n1Cc1ccc(-c2ccccc2-c2nnn[nH]2)cc1 [OLMESARTAN MEDOXOMIL],AC50,[9],74.3 µM
C/C(O)=C(\C#N)C(=O)Nc1ccc(C(F)(F)F)cc1 [TERIFLUNOMIDE],AC50,[7],> 30 µM
same,AC50,[8],> 30 µM
